Positions of bridges follow the written chain, without caps; N, C: chain ends. Non-standard residues stand in square brackets, D forms with d. Residues, ends and D or L forms follow the SMILES beside them. Bip(4'-NHAc) = CC(=O)Nc1ccc(-c2ccc(C[C@H](N)C(=O)O)cc2)cc1; Phe(3-CONH2) = NC(=O)c1cccc(C[C@H](N)C(=O)O)c1; Phe(4-CH2NH2) = NCc1ccc(C[C@H](N)C(=O)O)cc1; Bip = N[C@@H](Cc1ccc(-c2ccccc2)cc1)C(=O)O; Pro(cis-4-F) = O=C(O)[C@@H]1C[C@H](F)CN1; Hyp = O=C(O)[C@@H]1C[C@@H](O)CN1; 2Pal = N[C@@H](Cc1ccccn1)C(=O)O; Tic = O=C(O)[C@@H]1Cc2ccccc2CN1; Pip = O=C(O)[C@@H]1CCCCN1; Aze = O=C(O)[C@@H]1CCN1; Sar = CNCC(=O)O
What follows are compounds tested against TNFα (Homo sapiens, UniProt P01375) (assay: TNF-Induced HEK-Blue Assay). Conditions: HEK-Blue-CD40L cells, NF-kB-driven secreted alkaline phosphatase reporter; TNFα 0.5 ng/ml; 18 h; read-out: TNF induced HEK-Blue assay IC50 value.
Chain of TNFα (P01375 77-233 limits assumed): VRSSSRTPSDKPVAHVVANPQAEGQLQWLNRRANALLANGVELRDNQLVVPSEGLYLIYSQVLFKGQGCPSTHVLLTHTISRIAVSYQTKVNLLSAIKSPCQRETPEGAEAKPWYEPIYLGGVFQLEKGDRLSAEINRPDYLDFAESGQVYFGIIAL
Assay type: cell-based

| SMILES | IC50 |
| --- | --- |
| CC(C)C[C@@H]1NC(=O)[C@H](Cc2ccccn2)NC(=O)[C@H](C(C)C)NC(=O)[C@@H]2CCCN2C(=O)[C@H](C(C)C)NC(=O)[C@H](CCCNC(=N)N)NC(=O)[C@H](CC(=O)O)NC(=O)[C@@H]2CCCN2C(=O)CN(C)C(=O)[C@H](Cc2ccc(-c3ccccc3)cc2)NC(=O)[C@H](Cc2ccc(-c3ccccc3)cc2)NC(=O)[C@H](Cc2ccccc2)NC(=O)CSC[C@@H](C(=O)NCC(N)=O)NC1=O [Example 34] ({CH2CO}-F[Bip][Bip][Sar]PDRVPV[2Pal]LCG-NH2; thioether N-13) | 0.2 to 2 µM |
| CC(C)C[C@@H]1NC(=O)[C@H](Cc2ccc(CN)cc2)NC(=O)[C@H](C(C)C)NC(=O)[C@@H]2CCCN2C(=O)[C@H](C(C)C)NC(=O)[C@H](CCCNC(=N)N)NC(=O)[C@H](CC(=O)O)NC(=O)[C@@H]2CCCN2C(=O)CN(C)C(=O)[C@H](Cc2ccc(-c3ccccc3)cc2)NC(=O)[C@H](Cc2ccc(-c3ccccc3)cc2)NC(=O)[C@H](Cc2ccccc2)NC(=O)CSC[C@@H](C(=O)NCC(N)=O)NC1=O [Example 36] ({CH2CO}-F[Bip][Bip][Sar]PDRVPV[Phe(4-CH2NH2)]LCG-NH2; thioether N-13) | 0.2 to 2 µM |
| CC(=O)Nc1ccc(-c2ccc(C[C@@H]3NC(=O)[C@H](Cc4ccc(-c5ccccc5)cc4)NC(=O)[C@H](Cc4ccccc4)NC(=O)CSC[C@@H](C(=O)NCC(N)=O)NC(=O)[C@H](CC(C)C)NC(=O)[C@H](CCCNC(=N)N)NC(=O)[C@H](C(C)C)NC(=O)[C@@H]4CCCN4C(=O)[C@H](C(C)C)NC(=O)[C@H](CCCNC(=N)N)NC(=O)[C@H](CC(=O)O)NC(=O)[C@@H]4CCCN4C(=O)CN(C)C3=O)cc2)cc1 [Example 37] ({CH2CO}-F[Bip][Bip(4'-NHAc)][Sar]PDRVPVRLCG-NH2; thioether N-13) | 0.2 to 2 µM |
| CC(=O)Nc1ccc(-c2ccc(C[C@@H]3NC(=O)[C@H](Cc4ccccc4)NC(=O)CSC[C@@H](C(=O)NCC(N)=O)NC(=O)[C@H](CC(C)C)NC(=O)[C@H](CCCNC(=N)N)NC(=O)[C@H](C(C)C)NC(=O)[C@@H]4CCCN4C(=O)[C@H](C(C)C)NC(=O)[C@H](CCCNC(=N)N)NC(=O)[C@H](CC(=O)O)NC(=O)[C@@H]4CCCN4C(=O)CN(C)C(=O)[C@H](Cc4ccc(-c5ccccc5)cc4)NC3=O)cc2)cc1 [Example 38] ({CH2CO}-F[Bip(4'-NHAc)][Bip][Sar]PDRVPVRLCG-NH2; thioether N-13) | 0.2 to 2 µM |
| CC(C)C[C@@H]1NC(=O)[C@H](CCCNC(=N)N)NC(=O)[C@H](C(C)C)NC(=O)[C@@H]2Cc3ccccc3CN2C(=O)[C@H](C(C)C)NC(=O)[C@H](CCCNC(=N)N)NC(=O)[C@H](CC(=O)O)NC(=O)[C@@H]2CCCN2C(=O)CN(C)C(=O)[C@H](Cc2ccc(-c3ccccc3)cc2)NC(=O)[C@H](Cc2ccc(-c3ccccc3)cc2)NC(=O)[C@H](Cc2ccccc2)NC(=O)CSC[C@@H](C(=O)NCC(N)=O)NC1=O [Example 40] ({CH2CO}-F[Bip][Bip][Sar]PDRV[Tic]VRLCG-NH2; thioether N-13) | 0.05 to 0.2 µM |
| CC(C)C[C@@H]1NC(=O)[C@H](CCCNC(=N)N)NC(=O)[C@H](C(C)C)NC(=O)[C@@H]2CCCCN2C(=O)[C@H](C(C)C)NC(=O)[C@H](CCCNC(=N)N)NC(=O)[C@H](CC(=O)O)NC(=O)[C@@H]2CCCN2C(=O)CN(C)C(=O)[C@H](Cc2ccc(-c3ccccc3)cc2)NC(=O)[C@H](Cc2ccc(-c3ccccc3)cc2)NC(=O)[C@H](Cc2ccccc2)NC(=O)CSC[C@@H](C(=O)NCC(N)=O)NC1=O [Example 41] ({CH2CO}-F[Bip][Bip][Sar]PDRV[Pip]VRLCG-NH2; thioether N-13) | 0.2 to 2 µM |
| CC(C)C[C@@H]1NC(=O)[C@H](CCCNC(=N)N)NC(=O)[C@H](C(C)C)NC(=O)[C@@H]2CCCN2C(=O)[C@H](C(C)C)NC(=O)[C@H](CCCNC(=N)N)NC(=O)[C@H](CC(=O)O)NC(=O)[C@@H]2C[C@@H](O)CN2C(=O)CN(C)C(=O)[C@H](Cc2ccc(-c3ccccc3)cc2)NC(=O)[C@H](Cc2ccc(-c3ccccc3)cc2)NC(=O)[C@H](Cc2ccccc2)NC(=O)CSC[C@@H](C(=O)NCC(N)=O)NC1=O [Example 44] ({CH2CO}-F[Bip][Bip][Sar][Hyp]DRVPVRLCG-NH2; thioether N-13) | 0.2 to 2 µM |
| CC(C)C[C@@H]1NC(=O)[C@H](CCCNC(=N)N)NC(=O)[C@H](C(C)C)NC(=O)[C@@H]2CCCN2C(=O)[C@H](C(C)C)NC(=O)[C@H](CCCNC(=N)N)NC(=O)[C@H](CC(=O)O)NC(=O)[C@@H]2Cc3ccccc3CN2C(=O)CN(C)C(=O)[C@H](Cc2ccc(-c3ccccc3)cc2)NC(=O)[C@H](Cc2ccc(-c3ccccc3)cc2)NC(=O)[C@H](Cc2ccccc2)NC(=O)CSC[C@@H](C(=O)NCC(N)=O)NC1=O [Example 45] ({CH2CO}-F[Bip][Bip][Sar][Tic]DRVPVRLCG-NH2; thioether N-13) | 0.2 to 2 µM |

Other lines, results leading:

| IC50 | SMILES |
| --- | --- |
| 0.2 to 2 µM | CC(C)C[C@@H]1NC(=O)[C@H](CCCNC(=N)N)NC(=O)[C@H](C(C)C)NC(=O)[C@@H]2CCCN2C(=O)[C@H](C(C)C)NC(=O)[C@H](CCCNC(=N)N)NC(=O)[C@H](CC(=O)O)NC(=O)[C@@H]2CCCN2C(=O)CN(C)C(=O)[C@H](Cc2ccc(-c3ccccc3)cc2)NC(=O)[C@H](Cc2ccc(-c3ccccc3)cc2)NC(=O)[C@H](Cc2cccc(C(N)=O)c2)NC(=O)CSC[C@@H](C(=O)NCC(N)=O)NC1=O [Example 35] ({CH2CO}-[Phe(3-CONH2)][Bip][Bip][Sar]PDRVPVRLCG-NH2; thioether N-13) |
| 0.2 to 2 µM | CC(C)C[C@@H]1NC(=O)[C@H](CCCNC(=N)N)NC(=O)[C@H](C(C)C)NC(=O)[C@@H]2C[C@@H](O)CN2C(=O)[C@H](C(C)C)NC(=O)[C@H](CCCNC(=N)N)NC(=O)[C@H](CC(=O)O)NC(=O)[C@@H]2CCCN2C(=O)CN(C)C(=O)[C@H](Cc2ccc(-c3ccccc3)cc2)NC(=O)[C@H](Cc2ccc(-c3ccccc3)cc2)NC(=O)[C@H](Cc2ccccc2)NC(=O)CSC[C@@H](C(=O)NCC(N)=O)NC1=O [Example 39] ({CH2CO}-F[Bip][Bip][Sar]PDRV[Hyp]VRLCG-NH2; thioether N-13) |
| 0.2 to 2 µM | CC(C)C[C@@H]1NC(=O)[C@H](CCCNC(=N)N)NC(=O)[C@H](C(C)C)NC(=O)[C@@H]2CCN2C(=O)[C@H](C(C)C)NC(=O)[C@H](CCCNC(=N)N)NC(=O)[C@H](CC(=O)O)NC(=O)[C@@H]2CCCN2C(=O)CN(C)C(=O)[C@H](Cc2ccc(-c3ccccc3)cc2)NC(=O)[C@H](Cc2ccc(-c3ccccc3)cc2)NC(=O)[C@H](Cc2ccccc2)NC(=O)CSC[C@@H](C(=O)NCC(N)=O)NC1=O [Example 42] ({CH2CO}-F[Bip][Bip][Sar]PDRV[Aze]VRLCG-NH2; thioether N-13) |
| 0.2 to 2 µM | CC(C)C[C@@H]1NC(=O)[C@H](CCCNC(=N)N)NC(=O)[C@H](C(C)C)NC(=O)[C@@H]2C[C@H](F)CN2C(=O)[C@H](C(C)C)NC(=O)[C@H](CCCNC(=N)N)NC(=O)[C@H](CC(=O)O)NC(=O)[C@@H]2CCCN2C(=O)CN(C)C(=O)[C@H](Cc2ccc(-c3ccccc3)cc2)NC(=O)[C@H](Cc2ccc(-c3ccccc3)cc2)NC(=O)[C@H](Cc2ccccc2)NC(=O)CSC[C@@H](C(=O)NCC(N)=O)NC1=O [Example 43] ({CH2CO}-F[Bip][Bip][Sar]PDRV[Pro(cis-4-F)]VRLCG-NH2; thioether N-13) |
| 0.2 to 2 µM | CC(C)C[C@@H]1NC(=O)[C@H](CCCNC(=N)N)NC(=O)[C@H](C(C)C)NC(=O)[C@@H]2CCCN2C(=O)[C@H](C(C)C)NC(=O)[C@H](CCCNC(=N)N)NC(=O)[C@H](CC(=O)O)NC(=O)[C@@H]2CCN2C(=O)CN(C)C(=O)[C@H](Cc2ccc(-c3ccccc3)cc2)NC(=O)[C@H](Cc2ccc(-c3ccccc3)cc2)NC(=O)[C@H](Cc2ccccc2)NC(=O)CSC[C@@H](C(=O)NCC(N)=O)NC1=O [Example 46] ({CH2CO}-F[Bip][Bip][Sar][Aze]DRVPVRLCG-NH2; thioether N-13) |

From US20250145665A1, “MACROCYCLIC PEPTIDES USEFUL AS MODULATORS OF TNF ALPHA” (Bristol-Myers Squibb Company, priority 2023, published 2025)
